Laboratory results reported in the supplement of paper PMC11061612.

Assays:
Assay in all cases: combination Emax (second highest fraction inhibited in the dose matrix, 72 h); higher = more inhibition; extreme values may be limits of the assay
[1] = tested on: SK-GT-4 (Esophageal Adenocarcinoma)
Method in brief: (§1)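 After 24 hours at 37°C and 5% CO2 in 1536-well plates, cells in DMEM/F12 or RPMI plus 10% FBS received two-drug dose matrices for 72 hours. Viability came from CellTiter-Glo 2.0 luminescence and was scaled as inhibition, anchored at 0 by vehicle wells and at 1 by blank wells. Combination Emax is taken as the second-highest inhibition in the matrix, and Bliss excess as the observed combination effect less EA + EB − EA·EB, with EA and EB the single-agent effects.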

[2] = tested on: VMRC-RCZ (Kidney Carcinoma)
Method in brief: as §1

[3] = tested on: T-T (Esophageal Squamous Cell Carcinoma)
Method in brief: as §1

SJSA-1 (Osteosarcoma) = tested on: SJSA-1 (Osteosarcoma)
Method in brief: as §1

[4] = tested on: DMS-114 (Small Cell Lung Carcinoma)
Method in brief: as §1

NCI-H2731 (Mesothelioma) = tested on: NCI-H2731 (Mesothelioma)
Method in brief: as §1

[5] = tested on: ST486 (Burkitt's Lymphoma)
Method in brief: as §1

[6] = tested on: NCI-H929 (Plasma Cell Myeloma)
Method in brief: as §1

[7] = tested on: KYSE-270 (Esophageal Squamous Cell Carcinoma)
Method in brief: as §1

[8] = tested on: KP-3 (Pancreatic Carcinoma)
Method in brief: as §1

[9] = tested on: NCI-H3122 (Lung Adenocarcinoma)
Method in brief: as §1

[10] = tested on: NCI-H520 (Squamous Cell Lung Carcinoma)
Method in brief: as §1

[11] = tested on: COR-L279 (Small Cell Lung Carcinoma)
Method in brief: as §1

[12] = tested on: NCCIT (Other Solid Carcinomas)
Method in brief: as §1

[13] = tested on: MOG-G-CCM (Low Grade Glioma)
Method in brief: as §1

M059J (Glioblastoma) = tested on: M059J (Glioblastoma)
Method in brief: as §1

[14] = tested on: MN-60 (B-Lymphoblastic Leukemia)
Method in brief: as §1

[15] = tested on: OCI-AML3 (Acute Myeloid Leukemia)
Method in brief: as §1

[16] = tested on: CW-2 (Colorectal Carcinoma)
Method in brief: as §1

[17] = tested on: NCI-H526 (Small Cell Lung Carcinoma)
Method in brief: as §1

SMILES | combination Emax [1] | combination Emax [2] | combination Emax [3] | combination Emax (SJSA-1 (Osteosarcoma)) | combination Emax [4] | combination Emax (NCI-H2731 (Mesothelioma)) | combination Emax [5] | combination Emax [6] | combination Emax [7] | combination Emax [8] | combination Emax [9] | combination Emax [10] | combination Emax [11] | combination Emax [12] | combination Emax [13] | combination Emax (M059J (Glioblastoma)) | combination Emax [14] | combination Emax [15] | combination Emax [16] | combination Emax [17]
C[C@@H](Oc1cc(-c2cnn(C3CCNCC3)c2)cnc1N)c1c(Cl)ccc(F)c1Cl [Crizotinib] + Cn1cnc2c(F)c(Nc3ccc(Br)cc3Cl)c(C(=O)NOCCO)cc21 [Selumetinib] (first compound max 10 µM, 7x7, partner max 10 µM) | 0.461 | 0.174 | 0.759 | 0.82 | 0.527 | 0.519 | 0.936 | 1 | 0.441 | 0.208 | 0.916 | 0.616 | 0.755 | 0.4 | 0.374 | 0.257 | 0.38 | 0.997 | 0.37 | 0.508
C[C@@H](Nc1cc(F)cc(F)c1)c1cc(C(=O)N(C)C)cc2c(=O)cc(N3CCOCC3)oc12 [AZD8186] + CC(=O)c1c(C)c2cnc(Nc3ccc(N4CCNCC4)cn3)nc2n(C2CCCC2)c1=O [Palbociclib] (first compound max 10 µM, 7x7, partner max 10 µM) | 0.422 | 0.42 | 0.315 | 0.376 | 0.468 | 0.233 | 0.813 | 0.99 | 0.311 | 0.283 | 0.742 | 0.688 | 0.909 | 0.542 | 0.519 | 0.337 | 0.502 | 0.525 | 0.374 | 0.081
Cc1cc2ncnn2cc1Nc1ncc2c(n1)n(C1CCOCC1)c(=O)n2C [AZD7648] + COc1cc([C@@H]2c3cc4c(cc3[C@@H](O[C@@H]3O[C@@H]5CO[C@@H](C)O[C@H]5[C@H](O)[C@H]3O)[C@H]3COC(=O)[C@H]23)OCO4)cc(OC)c1O [Etoposide] (first compound max 10 µM, 7x7, partner max 10 µM) | 0.387 | 0.399 | 0.362 | 0.503 | 0.658 | 0.542 | 0.933 | 0.988 | 0.871 | 0.312 | 0.67 | 0.698 | 1 | 0.495 | 0.577 | 0.775 | 0.829 | 0.943 | 0.379 | 0.999
CC1(C)CCC(CN2CCN(c3ccc(C(=O)NS(=O)(=O)c4ccc(NCC5CCOCC5)c([N+](=O)[O-])c4)c(Oc4cnc5[nH]ccc5c4)c3)CC2)=C(c2ccc(Cl)cc2)C1 [Venetoclax] + CS(=O)(=O)CCNCc1ccc(-c2ccc3ncnc(Nc4ccc(OCc5cccc(F)c5)c(Cl)c4)c3c2)o1 [Lapatinib] (first compound max 1 µM, 7x7, partner max 10 µM) | 0.341 | 0.155 | 0.794 | 0.219 | 0.226 | 0.285 | 0.524 | 0.207 | 0.477 | 0.165 | 0.232 | 0.296 | 0.911 | 0.209 | 0.166 | 0.365 | 0.111 | 0.397 | 0.379 | 0.727
Cc1nc(-c2cn3c(n2)-c2ccc(-c4cnn(C(C)(C)C(N)=O)c4)cc2OCC3)n(C(C)C)n1 [Taselisib] + O=C(Nc1ccc2[nH]nc(-c3ccncc3)c2c1)[C@@H]1CCN(CC(=O)N2CCN(c3ccc(-c4ncccn4)cc3)CC2)C1 [SCH772984] (first compound max 10 µM, 7x7, partner max 5 µM) | 0.924 | 0.361 | 0.853 | 0.69 | 0.732 | 0.553 | 0.654 | 1 | 0.822 | 0.354 | 0.978 | 0.638 | 0.835 | 0.693 | 0.577 | 0.564 | 0.31 | 0.941 | 0.546 | 0.189
N#Cc1cnc(Nc2cc(NC[C@H]3CNCCO3)c(C(F)(F)F)cn2)cn1 [SRA737] + C=CCn1c(=O)c2cnc(Nc3ccc(N4CCN(C)CC4)cc3)nc2n1-c1cccc(C(C)(C)O)n1 [AZD1775] (first compound max 10 µM, partner max 1 µM) | 0.565 | 0.51 | 0.671 | 0.535 | 0.229 | 0.357 | 0.987 | 0.724 | 0.991 | 0.294 | 0.724 | 0.755 | 0.834 | 0.821 | 0.683 | 0.659 | 0.642 | 0.934 | 0.499 | 0.753
